We go through 4 compounds from publication PMC8952208, “Synthesis, Antiplasmodial, and Antileukemia Activity of Dihydroartemisinin–HDAC Inhibitor Hybrids as Multitarget Drugs” (Pharmaceuticals, 2022).

“Also recorded” adds a separate entry of the source. Some results are limits rather than exact numbers.

In experiment [1] the test system is NALM6 cells. The experiment can be described thus: CellTiter-Glo cell viability assay, NALM6. It counts as cell-based, human. As to conditions: for IC50: Homo sapiens, NALM-6, B-ALL, 72 h, CellTiter-Glo, n = 3; for Selectivity index range healthy fibroblasts vs NALM6: SI = (healthy fibroblast IC50)/(leukemia cell line IC50), range over two fibroblasts. Here is the method: (§1) Healthy individually-derived fibroblasts were cultured in DMEM supplemented with 10% FCS. Regular cell line authentication was performed short tandem repeat (STR) analysis (DNA fingerprinting), followed by comparison with the original DSMZ cell line database.
(§2) Cell viability assay was performed with leukemic cell lines after 72 h incubation with the respective inhibitors using ATP-based CellTiter-Glo luminescent assay (Promega, Madison, WI, USA).
For orientation: In ATP-based viability assays light output follows the ATP content of the culture.

Experiment [2] deals with HPBALL cells. As to the kind of experiment: CellTiter-Glo cell viability assay, HPBALL. In kind it is cell-based, human. As to conditions: for IC50: Homo sapiens, HPBALL, T-ALL, 72 h, CellTiter-Glo, n = 3; for Selectivity index range healthy fibroblasts vs HPB ALL: SI = (healthy fibroblast IC50)/(leukemia cell line IC50), range over two fibroblasts. Here is the method: as §1, §2

The subject of experiment [3] is MOLM13 cells. As to the kind of experiment: CellTiter-Glo cell viability assay, MOLM13. It counts as cell-based, human. As to conditions: for IC50: Homo sapiens, MOLM-13, AML, 72 h, CellTiter-Glo, n = 3; for Selectivity index range healthy fibroblasts vs MOLM13: SI = (healthy fibroblast IC50)/(leukemia cell line IC50), range over two fibroblasts. Here is the method:
as §1, §2

In experiment [4] the target is T1, human HDAC1 (hHDAC1) (Homo sapiens, UniProt Q13547).
T1 construct: purchased BPS Bioscience Inc. 50051
T1 sequence (Q13547 whole entry): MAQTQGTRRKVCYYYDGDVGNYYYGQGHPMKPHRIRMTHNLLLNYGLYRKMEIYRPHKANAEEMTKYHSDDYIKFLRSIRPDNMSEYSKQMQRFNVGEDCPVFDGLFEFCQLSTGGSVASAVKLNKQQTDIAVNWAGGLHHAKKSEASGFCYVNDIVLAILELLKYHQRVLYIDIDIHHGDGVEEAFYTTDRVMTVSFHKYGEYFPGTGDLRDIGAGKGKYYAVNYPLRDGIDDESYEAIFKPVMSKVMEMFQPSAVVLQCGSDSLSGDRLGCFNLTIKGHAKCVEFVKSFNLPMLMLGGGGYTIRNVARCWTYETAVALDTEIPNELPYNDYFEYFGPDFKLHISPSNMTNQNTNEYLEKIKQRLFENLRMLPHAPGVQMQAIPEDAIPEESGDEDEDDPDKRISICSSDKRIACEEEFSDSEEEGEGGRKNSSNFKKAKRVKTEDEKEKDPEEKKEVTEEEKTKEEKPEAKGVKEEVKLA
The experiment can be described thus: In vitro human HDAC1 assay (ZMAL substrate). It counts as biochemical. Here is the method: OptiPlate-96 black microplates (Perkin Elmer Inc., Waltham, MA, USA) were used with an assay volume of 50 µL. […] After an incubation time of 90 min, 50 µL of 0.4 mg/mL trypsin in trypsin buffer (50 mM Tris-HCl, pH 8.0, and 100 mM NaCl) was added, followed by further incubation at 37 °C for 30 min.

Experiment [5] relates to P. falciparum 3D7. As to the kind of experiment: microbe, parasite or virus in culture. In kind it is cell-based. As to conditions: Plasmodium falciparum, 3D7, 72 h; asexual blood stages, three days incubation; n ≥ 2 in duplicate, mean ± SD; read-out: Pf3D7 IC50. Here is the method: (§3) [38, 39] […] After three days of incubation at 37 °C, 5% CO2 and 5% O2 plates were frozen until analyzed by HRP2-ELISA. All compounds were evaluated in duplicate in at least two independent experiments. The IC50 was determined by nonlinear regression analysis of log concentration-response curves using the drc-package v3.0.1 [40] of R v4.0.5..

For experiment [6], the system named is P. falciparum Dd2. As to the kind of experiment: microbe, parasite or virus in culture. It counts as cell-based. As to conditions: Plasmodium falciparum, DD2, 72 h, read-out: PfDd2 IC50. Here is the method:
as §3

Experiment [7] relates to Healthy Fibroblast 2. As to the kind of experiment: Cytotoxicity against healthy fibroblast 2. As to conditions: Homo sapiens, healthy individually-derived fibroblasts. In kind it is cell-based. Here is the method:
as §1, §2

The test system of experiment [8] is HL60 cells. The experiment can be described thus: CellTiter-Glo cell viability assay, HL60. It counts as cell-based, human. As to conditions: for IC50: Homo sapiens, HL-60, AML, 72 h, CellTiter-Glo, n = 3; for Selectivity index range healthy fibroblasts vs HL60: SI = (healthy fibroblast IC50)/(leukemia cell line IC50), range over two fibroblasts. Here is the method: as §1, §2

In experiment [9] the test system is acetylation of α-tubulin (marker of HDAC6 inhibition). The experiment can be described thus: Immunoblotting, acetyl-α-tubulin in K562 cells. It counts as cell-based, human. As to conditions: 0.4 µM, 24 h. Here is the method:
(§4) K562 cells were treated with the indicated concentration of the compounds or vehicle control (DMSO) for 24 h. The recovered cell pellets were lysed with RIPA buffer (50 mM Tris-HCl pH 8.0, 1% Triton X-100, 0.5% sodium deoxycholate, 0.1% SDS, 150 mM sodium chloride, and 2 mM EDTA), supplemented with protease and phosphatase inhibitors (Thermofischer Scientific, Waltham, MA, USA). An equal amount of total protein (20 µg) was resolved by SDS-PAGE and followed by transfer on nitrocellulose membrane (Sigma-Aldrich). PageRuler prestained protein ladder, 10 kDa to 180 kDa (Thermofisher Scientific, Waltham, MA, USA) was used as a protein molecular weight marker.
A general note: In western blotting, separated proteins are transferred to a membrane and probed.

Experiment [10] deals with acetylation of histone H3 (marker of HDAC1 inhibition). As to the kind of experiment: Immunoblotting, acetyl-histone H3 in K562 cells. In kind it is cell-based, human. As to conditions: 0.4 µM, 24 h. Here is the method:
as §4

Experiment [11] deals with artemisinin-resistant P. falciparum Dd2 R539T. As to the kind of experiment: Ring-stage survival assay (0–3 h), Dd2 R539T. As to conditions: 700 nM, 6 h pulse; relative to DMSO control; compared with DHA. In kind it is cell-based. Here is the method: (§5) The effect of DHA–HDACi hybrids on artemisinin-resistant asexual stages of P. falciparum was assessed using the ring-stage survival assay as previously described with minor modifications. Briefly, mature schizonts of the artemisinin-sensitive strain Dd2 and the partial artemisinin-resistant strain Dd2 R539Twere isolated using magnetic column separation. The schizonts were then put with 10 mL complete medium and 200 µL 0^+ erythrocytes in a T-25 cell culture flask and incubated for exactly 3 h (37 °C, 5% O2, and 5% CO2). Next, parasites were synchronized with 5% (w/v) D-sorbitol solution yielding a culture containing only newly-invaded (0–3 h) ring-stage parasites.
(§6) Ring-stage parasites were added at 2% hematocrit and 0.5% parasitemia to a 48-well plate precoated with complete medium containing either DHA (Sigma-Aldrich) (positive control) or the tested DHA–HDACi hybrids at a final concentration of 700 nM or DMSO (negative control). […] Parasitemia was assessed by Giemsa-stained thin blood smears by two independent readers (10,000 erythrocytes per slide). If the results were discordant by more than 50%, a third independent read was conducted. The survival was calculated as the percentage of treated versus the untreated controls (DMSO). […] Means and standard deviations were calculated using Microsoft Excel. […]

For experiment [12], the system named is artemisinin-sensitive P. falciparum Dd2. As to the kind of experiment: Ring-stage survival assay (0–3 h), Dd2. In kind it is cell-based. As to conditions: 700 nM, 6 h pulse; relative to DMSO control. Here is the method:
as §5, §6

In general, IC50 refers to the point on the concentration scale where inhibition reaches its midpoint. As for `C[C@@H]1CC[C@H]2[C@@H](C)C(OCc3ccc(/C=C/C(=O)NO)cc3)O[C@@H]3O[C@@]4(C)CC[C@@H]1[C@]32OO4` (stereo partly drawn) [Compound 7a, (E)-N-Hydroxy-3-(4-((((3R,5aS,6R,8aS,9R,12R,12aR)-3,6,9-trimethyldecahydro-12H-3,12-epoxy[1,2]dioxepino[4,3-i]isochromen-10-yl)oxy)methyl)phenyl)acrylamide], the IC50 amounted to 150 ± 10 nM in experiment [1]; 1360 ± 30 nM in [2]; 220 ± 40 nM in experiment [3]; 546 ± 0.3 nM in experiment [4]; 2.6 ± 1.4 nM in experiment [5]; 1.7 ± 0.92 nM in experiment [6]. Further, the 50% inhibitory concentration (IC50) in [7] was 6340 ± 790 nM; in experiment [8], 1330 ± 140 nM. Further, the “Selectivity index range healthy fibroblasts vs NALM6” value in [1] is recorded as 42-87. Further, in experiment [2], the “Selectivity index range healthy fibroblasts vs HPB ALL” value was 5-10. In addition, in [3], the “Selectivity index range healthy fibroblasts vs MOLM13” value was 29-60. Also, in experiment [8], the “Selectivity index range healthy fibroblasts vs HL60” value is recorded as 5-10.
For `C[C@H]1[C@H](SCc2ccc(C(=O)NO)cc2)O[C@@H]2O[C@@]3(C)CC[C@H]4[C@H](C)CC[C@@H]1[C@@]24OO3` [(β)-7c, N-Hydroxy-4-((((3R,5aS,6R,8aS,9R,10S,12S,12aR)-3,6,9-trimethyldecahydro-12H-3,12-epoxy[1,2]dioxepino[4,3-i]isochromen-10-yl)thio)methyl)benzamide], the IC50 in [1] is 250 ± 10 nM; in [2] it was 12300 ± 570 nM; in [3], 380 ± 70 nM; in experiment [4] it was 2790 ± 140 nM; in experiment [5], 3.6 ± 1.1 nM; in experiment [6], 3.2 ± 0.02 nM. The values for the IC50 in experiment [7] and in experiment [8] were 17800 ± 6040 nM and 2340 ± 460 nM, respectively. Besides, in experiment [1], the “Selectivity index range healthy fibroblasts vs NALM6” value is 59-71. In [2], the “Selectivity index range healthy fibroblasts vs HPB ALL” value is listed as 1.2-1.4. Also, the “Selectivity index range healthy fibroblasts vs MOLM13” value in experiment [3] was 39-47. Moreover, the “acetylation of α-tubulin (immunoblot)” value in experiment [9] was “induced acetylation of α-tubulin”. Also, the “acetylation of histone H3 (immunoblot)” value in experiment [10] is reported as “did not induce acetylation of histone H3”. The “Selectivity index range healthy fibroblasts vs HL60” value in experiment [8] is recorded as 6-8.
Take `C[C@H]1[C@@H](SCc2ccc(C(=O)NO)cc2)O[C@@H]2O[C@@]3(C)CC[C@H]4[C@H](C)CC[C@@H]1[C@@]24OO3` [(α)-7c, N-Hydroxy-4-((((3R,5aS,6R,8aS,9R,10R,12S,12aR)-3,6,9-trimethyldecahydro-12H-3,12-epoxy[1,2]dioxepino[4,3-i]isochromen-10-yl)thio)methyl)benzamide]: the IC50 in experiment [1] is 280 ± 50 nM; in [2], 6720 ± 440 nM; in experiment [3], 330 ± 110 nM; in experiment [4], 2000 ± 200 nM; in experiment [5] it was 3.3 ± 1.4 nM; in [6] it was 3.4 ± 0.12 nM. In addition, the figures for the IC50 in experiment [7] and in [8] were 7410 ± 1400 nM and 1020 ± 270 nM, respectively. Moreover, the “Selectivity index range healthy fibroblasts vs NALM6” value in experiment [1] is given as 27-45. Also, the “survival of artemisinin-resistant Dd2 R539T parasites in ring-stage survival assay” value in experiment [11] is recorded as “significantly more active than DHA alone; also recorded: lowest survival”. Moreover, the “Selectivity index range healthy fibroblasts vs HPB ALL” value in experiment [2] was 1.1-1.9. Besides, in experiment [3], the “Selectivity index range healthy fibroblasts vs MOLM13” value was 23-39. In addition, in experiment [8], the “Selectivity index range healthy fibroblasts vs HL60” value is listed as 7-12.
In the case of `C[C@H]1[C@@H](O)O[C@@H]2O[C@@]3(C)CC[C@H]4[C@H](C)CC[C@@H]1[C@@]24OO3` [DHA, dihydroartemisinin], the concentration for half-maximal inhibition (IC50) was 2500 ± 160 nM in [1]; 9930 ± 1510 nM in experiment [2]; 690 ± 170 nM in experiment [3]; over 10000 nM in experiment [4]; 3 ± 2.7 nM in experiment [5]; 1.8 ± 0.02 nM in experiment [6]. Further, the half-inhibitory concentration (IC50) was over 25000 nM in experiment [7] and 3570 ± 1040 nM in [8]. In experiment [12], the “survival of artemisinin-sensitive Dd2 parasites in ring-stage survival assay” value is on record as at most 0.25%. Moreover, in [9], the “acetylation of α-tubulin (immunoblot)” value is reported as “affected the acetylation level neither of α-tubulin nor of histone H3”. Moreover, in experiment [10], the “acetylation of histone H3 (immunoblot)” value is “affected the acetylation level neither of α-tubulin nor of histone H3”.
